Assay results: ChEMBL document CHEMBL1201862, “PubChem BioAssay data set” (2004)
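Briefly, cells in 96-well plates were exposed to five compound concentrations for 48 h, and endpoints were estimated by linear interpolation. GI50: concentration for 50% inhibition of growth.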 Calls of active or inactive are those of the source. No stated cut-off is given here; in the data, active = GI50 up to about 1.1 µM and inactive = higher.

What was measured:
Test in all cases: inhibition of tumour cell growth, NCI panel, 48 h
786-0 = tested on: 786-0
A498 = tested on: A498
A549 = tested on: A549
ACHN = tested on: ACHN
CAKI-1 = tested on: CAKI-1
CCRF-CEM = tested on: CCRF-CEM
COLO 205 = tested on: COLO 205
DLD-1 = tested on: DLD-1
DMS-114 = tested on: DMS-114
DMS-273 = tested on: DMS-273
EKVX = tested on: EKVX
HCC 2998 = tested on: HCC 2998
HCT-116 = tested on: HCT-116
HCT-15 = tested on: HCT-15
HL-60 = tested on: HL-60
HOP-18 = tested on: HOP-18
HOP-62 = tested on: HOP-62
HOP-92 = tested on: HOP-92
HT-29 = tested on: HT-29
IGROV-1 = tested on: IGROV-1
K562 = tested on: K562
KM-20L2 = tested on: KM-20L2
KM12 = tested on: KM12
LOX IMVI = tested on: LOX IMVI
LXFL 529 = tested on: LXFL 529
M14 = tested on: M14
MOLT-4 = tested on: MOLT-4
Malme-3M = tested on: Malme-3M
NCI-H226 = tested on: NCI-H226
NCI-H23 = tested on: NCI-H23
NCI-H460 = tested on: NCI-H460
NCI-H522 = tested on: NCI-H522
OVCAR-3 = tested on: OVCAR-3
OVCAR-4 = tested on: OVCAR-4
OVCAR-5 = tested on: OVCAR-5
OVCAR-8 = tested on: OVCAR-8
RPMI-8226 = tested on: RPMI-8226
RXF 393 = tested on: RXF 393
SF-268 = tested on: SF-268
SF-295 = tested on: SF-295
SF-539 = tested on: SF-539
SK-MEL-28 = tested on: SK-MEL-28
SK-MEL-2 = tested on: SK-MEL-2
SK-MEL-5 = tested on: SK-MEL-5
SK-OV-3 = tested on: SK-OV-3
SN12C = tested on: SN12C
SNB-19 = tested on: SNB-19
SNB-75 = tested on: SNB-75
SNB-78 = tested on: SNB-78
SR = tested on: SR
SW-620 = tested on: SW-620
TK-10 = tested on: TK-10
U-251 = tested on: U-251
UACC-257 = tested on: UACC-257
UACC-62 = tested on: UACC-62
UO-31 = tested on: UO-31
XF498 = tested on: XF498
M19-MEL = tested on: M19-MEL

Compound: Cc1ccc(NC(=O)C(=O)C(C#N)c2ccccc2C)cc1C (stereo not drawn)
- GI50 (786-0): > 68.2 µM (inactive)
- GI50 (A498): > 100 µM (inactive)
- GI50 (A549): > 91.6 µM (inactive)
- GI50 (ACHN): > 100 µM (inactive)
- GI50 (CAKI-1): > 100 µM (inactive)
- GI50 (CCRF-CEM): > 61.7 µM (inactive)
- GI50 (COLO 205): > 45.5 µM (inactive)
- GI50 (DLD-1): 52.4 µM (inactive)
- GI50 (DMS-114): > 41.7 µM (inactive)
- GI50 (DMS-273): > 71.6 µM (inactive)
- GI50 (EKVX): > 100 µM (inactive)
- GI50 (HCC 2998): > 54.3 µM (inactive)
- GI50 (HCT-116): > 44.5 µM (inactive)
- GI50 (HCT-15): > 42.4 µM
- GI50 (HL-60): > 54.1 µM (inactive)
- GI50 (HOP-18): > 100 µM (inactive)
- GI50 (HOP-62): > 100 µM (inactive)
- GI50 (HOP-92): > 100 µM (inactive)
- GI50 (HT-29): > 100 µM (inactive)
- GI50 (IGROV-1): > 100 µM (inactive)
- GI50 (K562): > 44.9 µM (inactive)
- GI50 (KM-20L2): > 79.8 µM (inactive)
- GI50 (KM12): > 100 µM (inactive)
- GI50 (LOX IMVI): > 41.2 µM (inactive)
- GI50 (LXFL 529): > 100 µM (inactive)
- GI50 (M14): > 100 µM (inactive)
- GI50 (MOLT-4): > 100 µM (inactive)
- GI50 (Malme-3M): > 100 µM (inactive)
- GI50 (NCI-H226): > 100 µM (inactive)
- GI50 (NCI-H23): > 100 µM (inactive)
- GI50 (NCI-H460): > 48.5 µM (inactive)
- GI50 (NCI-H522): > 92.5 µM (inactive)
- GI50 (OVCAR-3): > 100 µM (inactive)
- GI50 (OVCAR-4): > 100 µM (inactive)
- GI50 (OVCAR-5): > 100 µM (inactive)
- GI50 (OVCAR-8): > 100 µM (inactive)
- GI50 (RPMI-8226): > 57.8 µM (inactive)
- GI50 (RXF 393): > 100 µM (inactive)
- GI50 (SF-268): > 100 µM (inactive)
- GI50 (SF-295): > 100 µM (inactive)
- GI50 (SF-539): > 100 µM (inactive)
- GI50 (SK-MEL-28): > 100 µM (inactive)
- GI50 (SK-MEL-2): > 100 µM (inactive)
- GI50 (SK-MEL-5): > 100 µM (inactive)
- GI50 (SK-OV-3): > 100 µM (inactive)
- GI50 (SN12C): > 100 µM (inactive)
- GI50 (SNB-19): > 100 µM (inactive)
- GI50 (SNB-75): > 69.3 µM (inactive)
- GI50 (SNB-78): > 100 µM (inactive)
- GI50 (SR): > 100 µM (inactive)
- GI50 (SW-620): > 41.8 µM (inactive)
- GI50 (TK-10): > 100 µM (inactive)
- GI50 (U-251): > 77.3 µM (inactive)
- GI50 (UACC-257): > 100 µM (inactive)
- GI50 (UACC-62): > 100 µM (inactive)
- GI50 (UO-31): > 100 µM (inactive)
- GI50 (XF498): > 100 µM (inactive)

Compound: CCOC(=O)NC(=O)c1cn(CCCOC(=O)CCCCCCCCCCC(=O)OCCCn2cc(C(=O)NC(=O)OCC)c(=O)n(C)c2=O)c(=O)n(C)c1=O
- GI50 (786-0): > 100 µM (inactive)
- GI50 (A498): > 100 µM (inactive)
- GI50 (A549): > 100 µM (inactive)
- GI50 (ACHN): > 100 µM (inactive)
- GI50 (CAKI-1): > 100 µM (inactive)
- GI50 (CCRF-CEM): > 100 µM (inactive)
- GI50 (COLO 205): > 100 µM (inactive)
- GI50 (DLD-1): > 100 µM (inactive)
- GI50 (DMS-114): > 100 µM (inactive)
- GI50 (DMS-273): > 100 µM (inactive)
- GI50 (EKVX): > 100 µM (inactive)
- GI50 (HCC 2998): > 100 µM (inactive)
- GI50 (HCT-116): > 100 µM (inactive)
- GI50 (HCT-15): > 100 µM
- GI50 (HL-60): > 100 µM (inactive)
- GI50 (HOP-18): > 100 µM (inactive)
- GI50 (HOP-62): > 100 µM (inactive)
- GI50 (HOP-92): 67.8 µM (inactive)
- GI50 (HT-29): > 100 µM (inactive)
- GI50 (IGROV-1): > 100 µM (inactive)
- GI50 (K562): > 100 µM (inactive)
- GI50 (KM12): > 100 µM (inactive)
- GI50 (LOX IMVI): > 100 µM (inactive)
- GI50 (LXFL 529): > 100 µM (inactive)
- GI50 (M14): > 100 µM (inactive)
- GI50 (M19-MEL): > 100 µM (inactive)
- GI50 (MOLT-4): > 100 µM (inactive)
- GI50 (Malme-3M): > 100 µM (inactive)
- GI50 (NCI-H226): > 100 µM (inactive)
- GI50 (NCI-H23): > 100 µM (inactive)
- GI50 (NCI-H460): > 100 µM (inactive)
- GI50 (NCI-H522): > 100 µM (inactive)
- GI50 (OVCAR-3): > 100 µM (inactive)
- GI50 (OVCAR-4): > 100 µM (inactive)
- GI50 (OVCAR-5): > 100 µM (inactive)
- GI50 (OVCAR-8): > 100 µM (inactive)
- GI50 (RPMI-8226): > 100 µM (inactive)
- GI50 (RXF 393): > 100 µM (inactive)
- GI50 (SF-268): > 100 µM (inactive)
- GI50 (SF-295): > 100 µM (inactive)
- GI50 (SF-539): > 100 µM (inactive)
- GI50 (SK-MEL-28): > 100 µM (inactive)
- GI50 (SK-MEL-2): > 100 µM (inactive)
- GI50 (SK-MEL-5): > 100 µM (inactive)
- GI50 (SK-OV-3): > 100 µM (inactive)
- GI50 (SN12C): > 100 µM (inactive)
- GI50 (SNB-19): > 100 µM (inactive)
- GI50 (SNB-75): 47.9 µM (inactive)
- GI50 (SNB-78): > 100 µM (inactive)
- GI50 (SR): > 100 µM (inactive)
- GI50 (SW-620): > 100 µM (inactive)
- GI50 (TK-10): > 100 µM (inactive)
- GI50 (U-251): > 100 µM (inactive)
- GI50 (UACC-257): > 100 µM (inactive)
- GI50 (UACC-62): > 100 µM (inactive)
- GI50 (UO-31): > 100 µM (inactive)
- GI50 (XF498): > 100 µM (inactive)

Compound: O=C1NC2(CCCC2)/C(=N\O)C12CCCC2
- GI50 (786-0): > 100 µM (inactive)
- GI50 (A498): > 100 µM (inactive)
- GI50 (A549): > 100 µM (inactive)
- GI50 (ACHN): > 100 µM (inactive)
- GI50 (CAKI-1): > 100 µM (inactive)
- GI50 (CCRF-CEM): > 100 µM (inactive)
- GI50 (COLO 205): > 100 µM (inactive)
- GI50 (DLD-1): > 100 µM (inactive)
- GI50 (DMS-114): > 100 µM (inactive)
- GI50 (DMS-273): > 100 µM (inactive)
- GI50 (EKVX): > 100 µM (inactive)
- GI50 (HCT-116): > 100 µM (inactive)
- GI50 (HCT-15): > 100 µM
- GI50 (HL-60): > 100 µM (inactive)
- GI50 (HOP-18): > 100 µM (inactive)
- GI50 (HOP-62): > 100 µM (inactive)
- GI50 (HOP-92): > 100 µM (inactive)
- GI50 (HT-29): > 100 µM (inactive)
- GI50 (IGROV-1): > 100 µM (inactive)
- GI50 (K562): > 100 µM (inactive)
- GI50 (KM12): > 100 µM (inactive)
- GI50 (LOX IMVI): > 100 µM (inactive)
- GI50 (LXFL 529): > 100 µM (inactive)
- GI50 (M14): > 100 µM (inactive)
- GI50 (M19-MEL): > 100 µM (inactive)
- GI50 (MOLT-4): > 100 µM (inactive)
- GI50 (Malme-3M): > 100 µM (inactive)
- GI50 (NCI-H23): > 100 µM (inactive)
- GI50 (NCI-H460): > 100 µM (inactive)
- GI50 (NCI-H522): > 100 µM (inactive)
- GI50 (OVCAR-3): > 100 µM (inactive)
- GI50 (OVCAR-4): > 100 µM (inactive)
- GI50 (OVCAR-5): > 100 µM (inactive)
- GI50 (OVCAR-8): > 100 µM (inactive)
- GI50 (RXF 393): > 100 µM (inactive)
- GI50 (SF-268): > 100 µM (inactive)
- GI50 (SF-295): > 100 µM (inactive)
- GI50 (SF-539): > 100 µM (inactive)
- GI50 (SK-MEL-28): > 100 µM (inactive)
- GI50 (SK-MEL-2): > 100 µM (inactive)
- GI50 (SK-MEL-5): > 100 µM (inactive)
- GI50 (SK-OV-3): > 100 µM (inactive)
- GI50 (SN12C): > 100 µM (inactive)
- GI50 (SNB-19): > 100 µM (inactive)
- GI50 (SNB-75): > 100 µM (inactive)
- GI50 (SNB-78): > 100 µM (inactive)
- GI50 (SR): > 100 µM (inactive)
- GI50 (SW-620): > 100 µM (inactive)
- GI50 (TK-10): > 100 µM (inactive)
- GI50 (U-251): > 100 µM (inactive)
- GI50 (UACC-257): > 100 µM (inactive)
- GI50 (UACC-62): > 100 µM (inactive)
- GI50 (UO-31): > 100 µM (inactive)
- GI50 (XF498): > 100 µM (inactive)
